Measurements reported in patent publication US20230085307A1, “PYRIDAZINONE COMPOUND AND HERBICIDE” (NISSAN CHEMICAL CORPORATION, priority 2019, published 2023).

Key:
Japanese bulrush [1] = assay: Test Example 2: herbicidal activity, application during weed generation under submerged conditions (Table 17, symbol B); format: in vivo, Japanese bulrush (Schoenoplectus juncoides); details: AAH 320 g/ha; application during weed generation, submerged conditions
Method in brief: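 Steps: fill Wagner pots with alluvial soil; add water to give 4 cm depth; sow the species mixed; grow under glass at 25–30° C.; at 1–2 leaves apply water-diluted emulsion formulation to the water surface at a fixed herbicide amount; score after 3 weeks.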

barnyard grass [2] = assay: Test Example 3: herbicidal effect by foliage application, Wagner pot (Table 18, symbol H); format: in vivo, barnyard grass (Echinochloa crus-galli); details: for herbicidal effect on H (barnyard grass), rating 0-5: 320 g/ha
Method in brief: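 Plants were sown in alluvial soil held under 0.1–0.5 cm standing water and grown 14 days in a greenhouse at 25–30 °C. An emulsifiable formulation, water-diluted to the set dose, was then sprayed onto the foliage, and effects were scored three weeks later using previously defined criteria.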

blackgrass [3] = assay: Test Example 4: herbicidal effect by soil treatment (Table 19, symbol J); format: in vivo, blackgrass (Alopecurus myosuroides)
Method in brief: (§1)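 Pre-emergence style soil spray: seeds under ~1.5 cm sterilized diluvial soil received a uniform coat of emulsion diluted to the predetermined herbicide amount. Greenhouse 25–30° C; readout at week three on previously defined criteria.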

velvetleaf [4] = assay: Test Example 4: herbicidal effect by soil treatment (Table 19, symbol M); format: in vivo, velvetleaf (Abutilon theophrasti)
Method in brief: as §1

green foxtail [5] = assay: Test Example 5: herbicidal effect by foliage application, plastic box (Table 20, symbol G); format: in vivo, green foxtail (Setaria viridis); details: foliage application; for effect on green foxtail (G): 3 weeks after application
Method in brief: (§2)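 Plants were sown into sterilized diluvial soil under about 1.5 cm cover and kept in a greenhouse at 25° C. to 30° C. Fourteen days on, foliage received an even spray of the diluted emulsion. Herbicidal or crop effect was judged three weeks afterwards.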

redroot pigweed = assay: Test Example 4: herbicidal effect by soil treatment (Table 19, symbol N); format: in vivo, redroot pigweed (Amaranthus retroflexus)
Method in brief: as §1

Japanese bulrush [6] = assay: Test Example 1: herbicidal activity, application before weed generation under submerged conditions (Table 16, symbol B); format: in vivo, Japanese bulrush (Schoenoplectus juncoides); details: 320 g/ha applied herbicide
Method in brief: (§3)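 Emulsion formulation, water-diluted to set dose, was put onto the flooded surface (4 cm depth, alluvial soil) the same day weeds were sown and 2.5-leaf rice transplanted. After 3 weeks at 25-30 °C under glass, each species was rated 0 (≤5% kill) to 5 (≥90% kill).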

windgrass = assay: Test Example 5: herbicidal effect by foliage application, plastic box (Table 20, symbol L); format: in vivo, windgrass (Apera spica-venti); details: foliage application; for effect on windgrass (L): 3 weeks after application
Method in brief: as §2

green foxtail [7] = assay: Test Example 4: herbicidal effect by soil treatment (Table 19, symbol G); format: in vivo, green foxtail (Setaria viridis)
Method in brief: as §1

persian speedwell [8] = assay: Test Example 5: herbicidal effect by foliage application, plastic box (Table 20, symbol R); format: in vivo, Persian speedwell (Veronica persica); details: foliage application; for effect on persian speedwell (R): 3 weeks after application
Method in brief: as §2

blackgrass [9] = assay: Test Example 5: herbicidal effect by foliage application, plastic box (Table 20, symbol J); format: in vivo, blackgrass (Alopecurus myosuroides); details: foliage application; for effect on blackgrass (J): 3 weeks after application
Method in brief: as §2

barnyard grass [10] = assay: Test Example 4: herbicidal effect by soil treatment (Table 19, symbol H); format: in vivo, barnyard grass (Echinochloa crus-galli)
Method in brief: as §1

velvetleaf [11] = assay: Test Example 5: herbicidal effect by foliage application, plastic box (Table 20, symbol M); format: in vivo, velvetleaf (Abutilon theophrasti); details: foliage application; for effect on velvetleaf (M): 3 weeks after application
Method in brief: as §2

southern crabgrass = assay: Test Example 5: herbicidal effect by foliage application, plastic box (Table 20, symbol F); format: in vivo, southern crabgrass (Digitaria ciliaris); details: foliage application; for effect on southern crabgrass (F): 3 weeks after application
Method in brief: as §2

oval-leafed pondweed = assay: Test Example 1: herbicidal activity, application before weed generation under submerged conditions (Table 16, symbol C); format: in vivo, oval-leafed pondweed (Monochoria vaginalis); details: 320 g/ha applied herbicide
Method in brief: as §3

persian speedwell [12] = assay: Test Example 4: herbicidal effect by soil treatment (Table 19, symbol R); format: in vivo, Persian speedwell (Veronica persica)
Method in brief: as §1

[13] = amount of applied herbicide 320 g/ha
[14] = 320 g/ha, three weeks after application
[15] = AAH 320 g/ha, evaluated three weeks after application
[16] = 320 g/ha, evaluated three weeks after application

SMILES	herbicidal effect rating, B: Japanese bulrush (Japanese bulrush [1])	herbicidal effect on H (barnyard grass), rating 0-5 (barnyard grass [2])	Herbicidal effect on B: Japanese bulrush (grade 0-5) (Japanese bulrush [6])	Herbicidal effect on C: oval-leafed pondweed (grade 0-5) (oval-leafed pondweed)	effect on green foxtail (G) (green foxtail [5]; 320 g/ha)	effect on windgrass (L) (windgrass; 320 g/ha)	effect on persian speedwell (R) (persian speedwell [8]; 320 g/ha)	effect on blackgrass (J) (blackgrass [9]; 320 g/ha)	effect on velvetleaf (M) (velvetleaf [11]; 320 g/ha)	effect on southern crabgrass (F) (southern crabgrass; 320 g/ha)	herbicidal effect rating, J: blackgrass (blackgrass [3]; 320 g/ha)	herbicidal effect rating, M: velvetleaf (velvetleaf [4]; 320 g/ha)	herbicidal effect rating, N: redroot pigweed (redroot pigweed; 320 g/ha)	herbicidal effect rating, G: green foxtail (green foxtail [7]; 320 g/ha)	herbicidal effect rating, H: barnyard grass (barnyard grass [10]; 320 g/ha)	herbicidal effect rating, R: persian speedwell (persian speedwell [12]; 320 g/ha)	also measured
CCCOc1ccc(-c2sc3ccccc3c2-c2c(O)c(C)nn(C)c2=O)cc1 [1-019]	4 (Herbicidal rate of 70% or more and less than 90%)	5 (Herbicidal rate of 90% or more (almost completely withered))	5 (Herbicidal rate of 90% or more (almost completely withered))	4 (Herbicidal rate of 70% or more and less than 90%)													herbicidal effect rating, J: blackgrass (blackgrass [3]; [13]): 0 (Herbicidal rate of 5% or less (almost no effect)); herbicidal effect rating, M: velvetleaf (velvetleaf [4]; [13]): 0 (Herbicidal rate of 5% or less (almost no effect)); herbicidal effect grade, G: green foxtail (green foxtail [5]; [14]): 5 (Herbicidal rate of 90% or more (almost completely withered)); herbicidal effect rating, N: redroot pigweed (redroot pigweed; [13]): 4 (Herbicidal rate of 70% or more and less than 90%); herbicidal effect grade, L: windgrass (windgrass; [14]): 5 (Herbicidal rate of 90% or more (almost completely withered)); herbicidal effect rating, G: green foxtail (green foxtail [7]; [13]): 2 (Herbicidal rate of 20% or more and less than 40%); herbicidal effect grade, R: persian speedwell (persian speedwell [8]; [14]): 5 (Herbicidal rate of 90% or more (almost completely withered)); herbicidal effect grade, J: blackgrass (blackgrass [9]; [14]): 4 (Herbicidal rate of 70% or more and less than 90%); herbicidal effect rating, H: barnyard grass (barnyard grass [10]; [13]): 3 (Herbicidal rate of 40% or more and less than 70%); herbicidal effect grade, M: velvetleaf (velvetleaf [11]; [14]): 5 (Herbicidal rate of 90% or more (almost completely withered)); herbicidal effect grade, F: southern crabgrass (southern crabgrass; [14]): 4 (Herbicidal rate of 70% or more and less than 90%); herbicidal effect rating, R: persian speedwell (persian speedwell [12]; [13]): 5 (Herbicidal rate of 90% or more (almost completely withered))
COCCOCOc1c(C)nn(C)c(=O)c1-c1c(-c2ccc(OCCC3OCCO3)cc2)sc2ccccc12 [1-224]	3 (Herbicidal rate of 40% or more and less than 70%)	5 (Herbicidal rate of 90% or more (almost completely withered))	5 (Herbicidal rate of 90% or more (almost completely withered))	3 (Herbicidal rate of 40% or more and less than 70%)	5 (Herbicidal rate of 90% or more (almost completely withered))	0 (Herbicidal rate of 5% or less (almost no effect))	5 (Herbicidal rate of 90% or more (almost completely withered))	0 (Herbicidal rate of 5% or less (almost no effect))	5 (Herbicidal rate of 90% or more (almost completely withered))	3 (Herbicidal rate of 40% or more and less than 70%)							J: blackgrass, herbicidal effect rating (blackgrass [3]; AAH 320 g/ha): 0 (Herbicidal rate of 5% or less (almost no effect)); M: velvetleaf, herbicidal effect rating (velvetleaf [4]; AAH 320 g/ha): 5 (Herbicidal rate of 90% or more (almost completely withered)); N: redroot pigweed, herbicidal effect rating (redroot pigweed; AAH 320 g/ha): 4 (Herbicidal rate of 70% or more and less than 90%); G: green foxtail, herbicidal effect rating (green foxtail [7]; AAH 320 g/ha): 3 (Herbicidal rate of 40% or more and less than 70%); H: barnyard grass, herbicidal effect rating (barnyard grass [10]; AAH 320 g/ha): 1 (Herbicidal rate of 5% or more and less than 20%); R: persian speedwell, herbicidal effect rating (persian speedwell [12]; AAH 320 g/ha): 3 (Herbicidal rate of 40% or more and less than 70%)
Cc1nn(C)c(=O)c(-c2c(-c3ccc(OC(F)F)cc3)sc3ccc(F)cc23)c1OC(=O)C1CCCC1 [2-280]	3 (Herbicidal rate of 40% or more and less than 70%)		3 (Herbicidal rate of 40% or more and less than 70%)	0 (Herbicidal rate of 5% or less (almost no effect))													herbicidal effect on H: barnyard grass (barnyard grass [2]; [13]): 5 (Herbicidal rate of 90% or more (almost completely withered)); herbicidal effect on J: blackgrass (blackgrass [3]; [13]): 1 (Herbicidal rate of 5% or more and less than 20%); herbicidal effect on M: velvetleaf (velvetleaf [4]; [13]): 3 (Herbicidal rate of 40% or more and less than 70%); G: green foxtail, herbicidal effect (criteria 0-5) (green foxtail [5]; [15]): 4 (Herbicidal rate of 70% or more and less than 90%); herbicidal effect on N: redroot pigweed (redroot pigweed; [13]): 5 (Herbicidal rate of 90% or more (almost completely withered)); L: windgrass, herbicidal effect (criteria 0-5) (windgrass; [15]): 3 (Herbicidal rate of 40% or more and less than 70%); herbicidal effect on G: green foxtail (green foxtail [7]; [13]): 2 (Herbicidal rate of 20% or more and less than 40%); R: persian speedwell, herbicidal effect (criteria 0-5) (persian speedwell [8]; [15]): 5 (Herbicidal rate of 90% or more (almost completely withered)); J: blackgrass, herbicidal effect (criteria 0-5) (blackgrass [9]; [15]): 5 (Herbicidal rate of 90% or more (almost completely withered)); herbicidal effect on H: barnyard grass (barnyard grass [10]; [13]): 3 (Herbicidal rate of 40% or more and less than 70%); M: velvetleaf, herbicidal effect (criteria 0-5) (velvetleaf [11]; [15]): 5 (Herbicidal rate of 90% or more (almost completely withered)); F: southern crabgrass, herbicidal effect (criteria 0-5) (southern crabgrass; [15]): 3 (Herbicidal rate of 40% or more and less than 70%); herbicidal effect on R: persian speedwell (persian speedwell [12]; [13]): 4 (Herbicidal rate of 70% or more and less than 90%)
Cc1nn(C)c(=O)c(-c2c(-c3ccc(Cl)cc3)sc3ccc(F)cc23)c1O [Compound No. 2-010, 4-(2-(4-chlorophenyl)-5-fluorobenzo[b]thiophen-3-yl)-5-hydroxy-2,6-dimethylpyridazin-3(2H)-one]		5 (Herbicidal rate of 90% or more (almost completely withered))	3 (Herbicidal rate of 40% or more and less than 70%)	1 (Herbicidal rate of 5% or more and less than 20%)	5 (Herbicidal rate of 90% or more (almost completely withered))	5 (Herbicidal rate of 90% or more (almost completely withered))	5 (Herbicidal rate of 90% or more (almost completely withered))	3 (Herbicidal rate of 40% or more and less than 70%)	5 (Herbicidal rate of 90% or more (almost completely withered))	5 (Herbicidal rate of 90% or more (almost completely withered))	0 (Herbicidal rate of 5% or less (almost no effect))	5 (Herbicidal rate of 90% or more (almost completely withered))	5 (Herbicidal rate of 90% or more (almost completely withered))	5 (Herbicidal rate of 90% or more (almost completely withered))	5 (Herbicidal rate of 90% or more (almost completely withered))	5 (Herbicidal rate of 90% or more (almost completely withered))	
COc1cc(F)ccc1-c1sc2ccc(Cl)cc2c1-c1c(O)c(C)nn(C)c1=O [Compound No. 2-095, 4-(5-chloro-2-(4-fluoro-2-methoxyphenyl)benzo[b]thiophen-3-yl)-5-hydroxy-2,6-dimethylpyridazin-3(2H)-one]		5 (Herbicidal rate of 90% or more (almost completely withered))	0 (Herbicidal rate of 5% or less (almost no effect))	0 (Herbicidal rate of 5% or less (almost no effect))							3 (Herbicidal rate of 40% or more and less than 70%)	0 (Herbicidal rate of 5% or less (almost no effect))	4 (Herbicidal rate of 70% or more and less than 90%)	4 (Herbicidal rate of 70% or more and less than 90%)	4 (Herbicidal rate of 70% or more and less than 90%)	4 (Herbicidal rate of 70% or more and less than 90%)	herbicidal effect on G: green foxtail (green foxtail [5]; [16]): 5 (Herbicidal rate of 90% or more (almost completely withered)); herbicidal effect on L: windgrass (windgrass; [16]): 5 (Herbicidal rate of 90% or more (almost completely withered)); herbicidal effect on R: persian speedwell (persian speedwell [8]; [16]): 5 (Herbicidal rate of 90% or more (almost completely withered)); herbicidal effect on J: blackgrass (blackgrass [9]; [16]): 4 (Herbicidal rate of 70% or more and less than 90%); herbicidal effect on M: velvetleaf (velvetleaf [11]; [16]): 5 (Herbicidal rate of 90% or more (almost completely withered)); herbicidal effect on F: southern crabgrass (southern crabgrass; [16]): 4 (Herbicidal rate of 70% or more and less than 90%)
